In patent US20090124562A1, “Versipelostatin derivative, anti-cancer agent and processes for production of the derivative and agent” (TOUDAI TLO, LTD., priority 2005, published 2009):

What was measured:
HT 1080 cell [1] = test: MTT assay, cell survival rate (Example 8); format: cell-based; settings: for cell survival rate (MTT assay): 24 hours
GRP 78 = test: Western blot of GRP 78 expression in HT 1080 cell (Examples 6, 7); format: cell-based; settings: glucose-deficient condition, cultured 18 hours, FIGS. 5 to 8
Description: In Example 6, the action of the VST derivative to inhibit expression of GRP 78 was studied by Western blot method. In the present experiment, the compounds prepared in Example 1 (the compounds having the chemical structure represented by “Formula 11” as the substituent group R^1 (n=3)) was used as the VST derivative.
Expression of GRP 78 is known to induce under glucose-deficient condition. Thus in the present experiment, the action of the VST derivative to induce or inhibit expression of GPR78 was studied both under glucose-deficient condition and also under normal condition.
The experiment was performed generally in the following manner: First, HT 1080 cell (cancer cell) was cultured in RPMI 1640 medium. […] Then, cultured cells were harvested, and GRP 78 expressed was detected by Western blotting with an anti-GRP 78 antibody.
Then, the cell was cultured in a similar manner and condition to those in Example 6, and GRP 78 expressed was detected by Western blotting by using an anti-GRP 78 antibody.

HT 1080 cell [2] = test: Toxicity at the cell level, cell count at 100 μM (Examples 11, 12); format: cell-based
Description: HT 1080 cell was cultured in a 6-cm dish until the cells became 70% confluent, and VST or a VST derivative was added to a concentration of 10, 3, or 1 μM in the absence of glucose (in the glucose-deficient state), and the action thereof was studied.
In the present Example, the VST derivative prepared in Example 1 (the compounds having the chemical structure represented by “Formula 11” as the substituent group R^1 (n=3)) was used as the VST derivative. […] In the present Example, VST or the VST derivative was added at a concentration of 100 μM.
In the present Example, the culture cell was brought into the glucose-deficient state by addition of 2-deoxyglucose.
The three kinds of VST biotin derivatives prepared in Example 7 were used as the VST derivatives. In the present Example, VST or the VST derivative was added to a concentration of 100 μM, and 2-DG, to a concentration of 20 mM.

ICR mice = test: Acute toxicity experiment in mice (Example 13); format: in vivo; settings: male ICR mice, tail vein injection
Description: The mice used were 7- to 8-week old male ICR mice (available from Charles River). VST or a VST derivative was administered to each mouse by tail vein injection, and the toxicity thereof was studied. In the present experiment, the VST biotin derivative prepared in Example 7 was used as the VST derivative.

Compound	cell survival rate (MTT assay) (HT 1080 cell [1]; 20 mM 2-DG alone)	induction of GRP 78 expression (Western blot) (GRP 78)	addition amount above which the cell survival rate declined significantly (HT 1080 cell [1]; 2-DG not added, MTT assay)	cell survival rate (MTT assay) (HT 1080 cell [1]; 2-DG not added, increasing addition amount, derivatives = VST-Biotin, VST-Biotin-C6, VST-Biotin-C12)	cell survival rate (MTT assay) (HT 1080 cell [1]; with 20 mM 2-DG (glucose-deficient state), derivatives = VST-Biotin, VST-Biotin-C6, VST-Biotin-C12)	cell death (HT 1080 cell [2]; Example 11: HT 1080 cell, glucose-deficient state)	cell count (HT 1080 cell [2]; Example 11: HT 1080 cell, normal culture environment (glucose present))	cell death (HT 1080 cell [2]; Example 12: HT 1080 cell, glucose-deficient state by 2-DG 20 mM, three VST biotin derivatives of Example 7)	cell count (HT 1080 cell [2]; Example 12: HT 1080 cell, normal culture environment, three VST biotin derivatives of Example 7)	Number of dead animals (within 24 hours) (ICR mice; 6 mg/kg)	Number of dead animals (within 24 hours) (ICR mice; 9 mg/kg)	Number of dead animals (within 24 hours) (ICR mice; 12 mg/kg)	Number of dead animals (within 24 hours) (ICR mice; 15 mg/kg)	Number of dead animals (within 24 hours) (ICR mice; 18 mg/kg)	Number of dead animals (within 24 hours) (ICR mice; 21 mg/kg)	Number of dead animals (within 24 hours) (ICR mice; 30 mg/kg)	dosage leading to death of all mice (ICR mice; summary of Table 1)
O=CC[C@@H](O)[C@H](O)[C@H](O)CO [Example 2-DG, 2-deoxyglucose]	approximately 50%																
versipelostatin [VST]		inhibited to some extent	exceeded 25 μM	declined significantly	around 30%	cell death	significant decrease in cell count	cell death	significant drop in cell count	0	0	1	5	4	4	4	more than 18 mg/kg
